Laboratory results as given in patent US5876946A, “High-throughput assay” (Pharmacopeia, Inc., priority 1997, dated 1999).

What was measured:
[1] = target: IL-8 receptor; assay: conventional [^125 I]IL-8 ligand displacement assay; assay type: binding
[2] = target: T1, neurokinin-2 receptor (NK2R/CHO cells) (Homo sapiens, UniProt P21452); assay: Displacement of Cy5-NKA bound to NK2R/CHO cells by SR48,968; assay type: binding
T1 construct: expressed in transfected cells; host or cells: CHO cells (NK2R/CHO)
T1 sequence (P21452 1-398): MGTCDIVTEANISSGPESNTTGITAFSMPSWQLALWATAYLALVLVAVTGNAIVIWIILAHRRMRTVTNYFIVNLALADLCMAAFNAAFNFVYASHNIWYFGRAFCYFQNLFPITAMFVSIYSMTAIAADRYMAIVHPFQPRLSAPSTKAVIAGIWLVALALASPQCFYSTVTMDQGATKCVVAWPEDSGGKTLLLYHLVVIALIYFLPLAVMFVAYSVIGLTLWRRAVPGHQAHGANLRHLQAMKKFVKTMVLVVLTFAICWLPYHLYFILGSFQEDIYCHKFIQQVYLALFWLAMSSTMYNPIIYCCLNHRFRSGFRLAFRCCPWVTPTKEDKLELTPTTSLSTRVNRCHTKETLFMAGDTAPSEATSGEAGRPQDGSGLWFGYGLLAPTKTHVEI
Method: (a) Cells expressing neurokinin-2 receptor (NK2R/CHO) were obtained.
A culture of NK2R/CHO cells, near confluence, was washed with 12 mL DPBS(Mg^+2 & Ca^+2 free), trypsinized by adding trypsin (2 mL/T-25 flask), incubating at 37° C. for about 5 min, then quenching with 10 mL media. Cells were then counted, and diluted to the desired final concentration of cells (5,000 cells/25 μL). […] The plate was covered and wrapped in aluminum foil to protect from light and left to shake for 1 hr at room temperature. For each sample, 25 μL was removed, placed in an IMAGN 2000™ capillary, and read using IMAGN™ software (Biometric Imaging, Inc.) The sample was allowed to settle until the cells rested on the bottom of the well. The time require for settling was typically 10 minutes.
SR-48,968 is a known inhibitor of the binding of NKA neurokinin 2 receptor.
"Max" and "min" refer to the maximum and minimum fluorescence for the relevant value.
% Control=((Value-Min)/(Max-Min))×100

| IC50 [2] | estimated Ki ([2]; displacement of Cy5-NKA) | Hill coefficient ([2]; displacement of Cy5-NKA by SR48.968) | Molecule | Ki [1] |
| --- | --- | --- | --- | --- |
| – | – | – | hIL(S72C)-Cy5: Human interleukin-8, Ser72→Cys mutant (hIL-8(S72C)), labelled with monofunctional Cy5-iodoacetamide | 2 nM |
| 0.575 nM | ~0.29 nM | 0.996 | CC(=O)NC1(c2ccccc2)CCN(CCC(CN(C)C(=O)c2ccccc2)c2ccc(Cl)c(Cl)c2)CC1 (stereo not shown) [SR48.968] | – |
